In the supplement of paper PMC11061612:

Legend:
[1] = test system: AM-38 (Glioblastoma); test: Bliss excess, mean over the matrix (fraction); higher = more synergy
In short: (§1)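 Cell lines grown in DMEM/F12 or RPMI with 10% FBS were plated in 1536-well plates and held 24 hours at 37°C, 5% CO2 before 72 hours of exposure to two-drug dose matrices, with DMSO typically at 0.2%. CellTiter-Glo 2.0 luminescence gave viability, which was converted to inhibition. Vehicle wells were set to 0 and blank wells to 1. Combination Emax is the second-highest inhibition in the matrix, and Bliss excess is the observed combination effect minus the expected EA + EB − EA·EB, where EA and EB are the single-agent effects.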

[2] = test system: CL-11 (Colorectal Carcinoma); test: as above
In short: as §1

[3] = test system: IA-LM (Non-Small Cell Lung Carcinoma); test: as above
In short: as §1

[4] = test system: KP-4 (Pancreatic Carcinoma); test: as above
In short: as §1

[5] = test system: MOLT-13 (T-Lymphoblastic Leukemia); test: as above
In short: as §1

[6] = test system: NMC-G1 (Low Grade Glioma); test: as above
In short: as §1

[7] = test system: OAW-28 (Ovarian Carcinoma); test: as above
In short: as §1

[8] = test system: P30-OHK (B-Lymphoblastic Leukemia); test: as above
In short: as §1

[9] = test system: RCC-JW (Kidney Carcinoma); test: as above
In short: as §1

[10] = test system: SAT (Head and Neck Carcinoma); test: as above
In short: as §1

[11] = test system: SK-CO-1 (Colorectal Carcinoma); test: as above
In short: as §1

[12] = test system: SK-N-SH (Neuroblastoma); test: as above
In short: as §1

[13] = test system: SNU-423 (Hepatocellular Carcinoma); test: as above
In short: as §1

[14] = test system: SiHa (Cervical Carcinoma); test: as above
In short: as §1

[15] = test system: HPAF-II (Pancreatic Carcinoma); test: as above
In short: as §1

[16] = test system: HPAF-II (Pancreatic Carcinoma); test: combination Emax (second highest fraction inhibited in the dose matrix, 72 h); higher = more inhibition; extreme values may be limits of the assay
In short: as §1
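Wherever Bliss excess, mean over the matrix is given: after 72 h of two-drug dosing.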

Compound | Bliss excess [1] | Bliss excess [2] | Bliss excess [3] | Bliss excess [4] | Bliss excess [5] | Bliss excess [6] | Bliss excess [7] | Bliss excess [8] | Bliss excess [9] | Bliss excess [10] | Bliss excess [11] | Bliss excess [12] | Bliss excess [13] | Bliss excess [14] | Bliss excess [15] | combination Emax [16]
COc1cc2c(cc1OCCCCCOc1cc3c(cc1OC)C(=O)N1C=C(C)C[C@H]1C=N3)N=C[C@@H]1CC(C)=CN1C2=O [SG3199] + O=C(c1cc(Cc2n[nH]c(=O)c3ccccc23)ccc1F)N1CCN(C(=O)C2CC2)CC1 [Olaparib] (first compound max 0.001 µM, 7x7, partner max 10 µM) | -0.0032 | -0.016 | -0.0401 | -0.0366 | 0.018 | -0.0625 | -0.0263 | -0.0422 | -0.0231 | -0.0203 | -0.0444 | -0.0454 | -0.0238 | -0.0291 | – | –
CCN(CCO)CCCOc1ccc2c(Nc3cc(CC(=O)Nc4cccc(F)c4)[nH]n3)ncnc2c1 [AZD2811] + C[C@@H]1COCCN1C2=NC(=NC(=C2)C3(CC3)[S@](=N)(=O)C)C4=C5C=CNC5=NC=C4 [AZD6738] (first compound max 1 µM, 7x7, partner max 10 µM) | -0.0202 | -0.0488 | -0.0264 | -0.0273 | -0.0075 | -0.117 | -0.0207 | -0.0736 | -0.0203 | -0.0581 | -0.0309 | -0.0358 | -0.0386 | -0.0137 | – | –
Cc1cc2ncnn2cc1Nc1ncc2c(n1)n(C1CCOCC1)c(=O)n2C [AZD7648] + CCN(CCO)CCCOc1ccc2c(Nc3cc(CC(=O)Nc4cccc(F)c4)[nH]n3)ncnc2c1 [AZD2811] (first compound max 10 µM, 7x7, partner max 1 µM) | 0.0106 | 0.0274 | 0.0156 | -0.0425 | -0.0152 | -0.0407 | 0.0284 | -0.0267 | -0.011 | -0.0101 | -0.0524 | 0.0001 | -0.0408 | 0.0278 | – | –
CCc1c2c(nc3ccc(O)cc13)-c1cc3c(c(=O)n1C2)COC(=O)[C@]3(O)CC [SN-38] + O=C(c1cc(Cc2n[nH]c(=O)c3ccccc23)ccc1F)N1CCN(C(=O)C2CC2)CC1 [Olaparib] (first compound max 0.3 µM, 7x7, partner max 10 µM) | -0.0023 | 0.0626 | 0.053 | 0.0777 | 0.0811 | -0.0071 | – | 0.0708 | 0.112 | 0.0387 | 0.0147 | 0.0739 | -0.0025 | 0.0271 | – | –
Cc1c2c(nn1C)CSCc1cc(n(C)n1)CSc1cc(c3ccccc3c1)OCCCc1c(C(=O)O)n(C)c3c-2c(Cl)ccc13 [AZD5991] + C1CN(CCC1(C(=O)N[C@@H](CCO)C2=CC=C(C=C2)Cl)N)C3=NC=NC4=C3C=CN4 [Capivasertib] (first compound max 1 µM, 7x7, partner max 3 µM) | 0.0026 | -0.0234 | -0.021 | -0.005 | -0.0135 | -0.0172 | 0.045 | 0.0273 | 0.0131 | -0.0072 | -0.0119 | 0.011 | -0.0822 | – | – | –
COc1nnc2ccc(N3CCC(c4ccc(OCCN5CCN(C)C(=O)[C@H]5C)cc4)CC3)nn12 [AZD5153] + Cn1cnc2c(F)c(Nc3ccc(Br)cc3Cl)c(C(=O)NOCCO)cc21 [Selumetinib] (first compound max 1 µM, 7x7, partner max 10 µM) | -0.0064 | 0.0425 | 0.0168 | 0.0157 | 0.085 | – | 0.0279 | -0.0004 | 0.0214 | 0.002 | -0.0134 | -0.0142 | 0.0059 | -0.0197 | 0.0634 | 0.868
CC(=O)c1c(C)c2cnc(Nc3ccc(N4CCNCC4)cn3)nc2n(C2CCCC2)c1=O [Palbociclib] + Cc1c2c(nn1C)CSCc1cc(n(C)n1)CSc1cc(c3ccccc3c1)OCCCc1c(C(=O)O)n(C)c3c-2c(Cl)ccc13 [AZD5991] (first compound max 10 µM, 7x7, partner max 1 µM) | -0.0448 | 0.0079 | -0.161 | -0.0249 | 0.0478 | – | 0.0058 | 0.0418 | -0.0306 | -0.0367 | -0.035 | -0.0257 | -0.0349 | -0.0561 | -0.0186 | 0.142
CC(=O)c1c(C)c2cnc(Nc3ccc(N4CCNCC4)cn3)nc2n(C2CCCC2)c1=O [Palbociclib] + Cn1cnc2c(F)c(Nc3ccc(Br)cc3Cl)c(C(=O)NOCCO)cc21 [Selumetinib] (first compound max 10 µM, 7x7, partner max 10 µM) | 0.0242 | 0.0303 | 0.0126 | -0.0235 | 0.193 | – | -0.0301 | -0.0089 | -0.0397 | 0.0504 | -0.0121 | -0.0238 | -0.0141 | -0.0404 | -0.0337 | 0.629
Cn1cnc2c(F)c(Nc3ccc(Br)cc3Cl)c(C(=O)NOCCO)cc21 [Selumetinib] + C=CCn1c(=O)c2cnc(Nc3ccc(N4CCN(C)CC4)cc3)nc2n1-c1cccc(C(C)(C)O)n1 [AZD1775] (first compound max 10 µM, partner max 1 µM) | -0.0541 | 0.0024 | -0.0017 | -0.0377 | 0.0535 | – | -0.0604 | -0.0789 | -0.0542 | -0.0151 | -0.0579 | -0.11 | -0.0078 | -0.0422 | 0.039 | 0.728
C=CCn1c(=O)c2cnc(Nc3ccc(N4CCN(C)CC4)cc3)nc2n1-c1cccc(C(C)(C)O)n1 [AZD1775] + C1CN(CCC1(C(=O)N[C@@H](CCO)C2=CC=C(C=C2)Cl)N)C3=NC=NC4=C3C=CN4 [Capivasertib] (first compound max 3 µM, partner max 3 µM) | -0.0247 | -0.0499 | -0.0348 | -0.0806 | 0.0139 | – | 0.0019 | 0.0697 | -0.0527 | -0.0616 | -0.0603 | -0.0626 | -0.0333 | -0.0212 | -0.096 | 0.605
CC(=O)c1c(C)c2cnc(Nc3ccc(N4CCNCC4)cn3)nc2n(C2CCCC2)c1=O [Palbociclib] + CC1(C)CCC(CN2CCN(c3ccc(C(=O)NS(=O)(=O)c4ccc(NCC5CCOCC5)c([N+](=O)[O-])c4)c(Oc4cnc5[nH]ccc5c4)c3)CC2)=C(c2ccc(Cl)cc2)C1 [Venetoclax] (first compound max 10 µM, 7x7, partner max 1 µM) | -0.0058 | -0.0286 | -0.0647 | -0.104 | 0.112 | – | -0.0112 | 0.126 | -0.0539 | -0.0489 | -0.122 | -0.0185 | -0.034 | -0.0347 | -0.034 | 0.0506
NC1(C(=O)N[C@@H](CCO)c2ccc(Cl)cc2)CCN(c2ncnc3[nH]ccc23)CC1 [Capivasertib] + C[C@@H]1COCCN1C2=NC(=NC(=C2)C3(CC3)[S@](=N)(=O)C)C4=C5C=CNC5=NC=C4 [AZD6738] (first compound max 10 µM, 7x7, partner max 10 µM) | -0.0121 | -0.0376 | 0.008 | -0.0371 | -0.0387 | – | 0.0005 | 0.0468 | -0.0713 | -0.0345 | -0.0786 | -0.0576 | -0.0139 | 0.0259 | -0.0105 | 0.5
CN(CCO)CC[C@H](CSc1ccccc1)Nc1ccc(S(=O)(=O)NC(=O)c2ccc(N3CCC([C@@H](O)c4ccccc4-c4ccc(Cl)cc4)CC3)cc2)cc1S(=O)(=O)C(F)(F)F [AZD4320] + C[C@@H]1COCCN1C2=NC(=NC(=C2)C3(CC3)[S@](=N)(=O)C)C4=C5C=CNC5=NC=C4 [AZD6738] (first compound max 1 µM, 7x7, partner max 10 µM) | 0.0052 | 0.0073 | -0.0404 | -0.0444 | -0.0057 | -0.0724 | 0.0382 | 0.0653 | -0.0862 | – | -0.0858 | -0.0586 | -0.0359 | -0.0492 | – | –
COc1nnc2ccc(N3CCC(c4ccc(OCCN5CCN(C)C(=O)[C@H]5C)cc4)CC3)nn12 [AZD5153] + Cc1c2c(nn1C)CSCc1cc(n(C)n1)CSc1cc(c3ccccc3c1)OCCCc1c(C(=O)O)n(C)c3c-2c(Cl)ccc13 [AZD5991] (first compound max 1 µM, 7x7, partner max 1 µM) | -0.0083 | -0.0499 | -0.0797 | -0.0231 | -0.0503 | – | 0.0515 | -0.0042 | -0.0078 | 0.0109 | -0.0377 | -0.0334 | -0.0227 | -0.0237 | -0.0124 | 0.35
C[C@@H](c1ccc2nccn2c1)n1nnc2ncc(-c3cnn(C)c3)nc21 [Savolitinib] + CC1(C)CCC(CN2CCN(c3ccc(C(=O)NS(=O)(=O)c4ccc(NCC5CCOCC5)c([N+](=O)[O-])c4)c(Oc4cnc5[nH]ccc5c4)c3)CC2)=C(c2ccc(Cl)cc2)C1 [Venetoclax] (first compound max 1 µM, 7x7, partner max 1 µM) | -0.0839 | -0.0576 | -0.0963 | -0.0556 | -0.0181 | – | -0.0331 | -0.0198 | -0.0343 | -0.131 | -0.0491 | -0.0289 | -0.0205 | -0.0536 | -0.018 | 0.131
Cc1nc(Nc2ncc(C(=O)Nc3c(C)cccc3Cl)s2)cc(N2CCN(CCO)CC2)n1 [Dasatinib] + CC(=O)Nc1cccc(-n2c(=O)n(C3CC3)c(=O)c3c(Nc4ccc(I)cc4F)n(C)c(=O)c(C)c32)c1 [Trametinib] (first compound max 2 µM, 7x7, partner max 1 µM) | 0.0091 | 0.0766 | 0.117 | 0.0558 | 0.0463 | – | 0.0599 | -0.0442 | 0.0062 | -0.0712 | 0.0602 | -0.0507 | -0.047 | -0.0082 | 0.0843 | 0.928
NC1(C(=O)N[C@@H](CCO)c2ccc(Cl)cc2)CCN(c2ncnc3[nH]ccc23)CC1 [Capivasertib] + CC(C)n1c(=O)n(C)c2cnc3cc(F)c(-c4ccc(OCCCN5CCCCC5)nc4)cc3c21 [AZD1390] (first compound max 10 µM, 7x7, partner max 0.3 µM) | -0.064 | -0.0287 | -0.0371 | -0.0546 | -0.037 | – | -0.0674 | -0.0289 | -0.0366 | -0.0275 | -0.0173 | -0.0626 | -0.0583 | -0.046 | -0.0016 | 0.245
